These results are taken from patent US20250084036A1, “COMPOUND, ALDEHYDE DEHYDROGENASE 2 ACTIVATOR, PHARMACEUTICAL COMPOSITION, AND THERAPEUTIC AND/OR PROPHYLACTIC DRUG” (Alchemedicine, Inc., priority 2022, published 2025).

For series [1], the target named is T1, human recombinant ALDH2 enzyme (Homo sapiens, UniProt P05091).
T1 construct: purchased Abcam ab87415
T1 sequence (P05091 18-517): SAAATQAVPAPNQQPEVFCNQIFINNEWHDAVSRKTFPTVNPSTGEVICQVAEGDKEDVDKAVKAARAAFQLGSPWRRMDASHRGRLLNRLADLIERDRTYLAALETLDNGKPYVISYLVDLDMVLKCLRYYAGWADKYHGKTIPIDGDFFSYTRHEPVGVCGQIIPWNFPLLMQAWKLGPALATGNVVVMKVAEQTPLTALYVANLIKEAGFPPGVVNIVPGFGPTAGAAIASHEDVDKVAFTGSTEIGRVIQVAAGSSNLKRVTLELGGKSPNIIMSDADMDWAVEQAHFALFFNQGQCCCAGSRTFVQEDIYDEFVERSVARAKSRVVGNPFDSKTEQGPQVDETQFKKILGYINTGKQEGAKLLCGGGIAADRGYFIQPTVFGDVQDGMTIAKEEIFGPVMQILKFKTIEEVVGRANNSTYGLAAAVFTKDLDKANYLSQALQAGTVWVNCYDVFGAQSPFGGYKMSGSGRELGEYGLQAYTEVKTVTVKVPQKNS
As to the kind of experiment: Test Example 1-1: ALDH2 activation effect (acetaldehyde oxidation rate, PicoProbe kit). The class given is biochemical. The following applies: ALDH2 2 μg/mL, 180 min measurement. As to the method:
The activation effect of each test compound on the acetaldehyde oxidation rate of ALDH2 was measured with the following method. A test was conducted by using a commercially available PicoProbe™ Aldehyde dehydrogenase Activity Assay Kit (manufactured by BioVision Inc.) with reference to an instruction attached to the product under the following conditions. To each well of a 384-well plate, the following (1) to (3) were sequentially added with a pipette: • (1) 10 μL of solution obtained by dissolving and diluting a human recombinant ALDH2 enzyme (manufactured by Abcam, product number: ab87415) with ALDH assay Buffer (final concentration: 2 μg/mL); • (2) 10 μL of 30 μM or 90 μM test compound solution (with 3% DMSO) prepared by using ALDH assay Buffer; and • (3) 10 μL of Reaction mix composed with ratio of […] of ALDH assay Buffer, 0.6 μL of PicoProbe, 0.3 μL of Substrate Mix, and 1.5 μL of Acetaldehyde.
Before addition of (3), incubation was performed at room temperature for 5 minutes. After addition of (3), fluorescence intensity was measured at room temperature every 2.5 minutes over a period of 180 minutes by using an EnSight (manufactured by PerkinElmer Inc.) to determine the oxidation rate. Wavelengths of 535 nm and 587 nm were used for fluorescence intensities of excitation and emission, respectively.

Series [2] in a line: Test Example 2: Metabolic stability with mouse hepatic microsomes. Further: tested at 0.99 µM. The following applies: after 30 minutes, 37° C., NADPH. The class given is in vitro ADME. As to the method:
Metabolic stability in mouse hepatic microsomes was evaluated with the following method.
• (1) Mouse hepatic microsomes: 20 mg/mL • (2) Test compound: 1.1 mM DMSO solution • (3) Potassium phosphate buffer solution: 66.7 mM (pH 7.4) • (4) NADPH solution: 10 mM in potassium phosphate buffer solution • (5) Quenching solution: 0.5% formic acid-acetonitrile solution with warfarin as internal standard substance
Into a propylene tube, 971.5 μL of the potassium phosphate buffer solution and 27.5 μL of the mouse hepatic microsomes were put, and suspended. Thereto, 1 μL of a test compound was added, and 180 μL was taken from this mixture and transferred into another tube. The mixture was preincubated at 37° C. for 5 minutes, and 20 μL of the NADPH solution (for the case with an incubation time of 30 minutes) or 20 μL of the potassium phosphate buffer solution (for the case with an incubation time of 0 minutes) was then added thereto. After incubation, 200 μL of the quenching solution was added to terminate the reaction. Subsequently, centrifugation was performed at 3220×g for 20 minutes, and the concentration of the unchanged form of the test compound in 200 μL of the supernatant was measured with LC-MS/MS. On the basis of the peak area obtained for the unchanged form, the residual rate (%) of the unchanged form was calculated as that for the case with an incubation time of 0 minutes was assumed as 100%.

Series [3] in a line: Test Example 3: Metabolic stability with human hepatic microsomes. The class given is in vitro ADME. The conditions noted are these: human hepatic microsomes 0.1 mg protein/mL, 0.1 μmol/L test compound, after 30 minutes, 37° C. As to the method:
For the compounds of Examples 1 to 9, which had been confirmed to have stability in the mouse hepatic microsome test, metabolic stability with human hepatic microsomes was measured. The specific method is as follows. • (1) Fifty microliter-portions were taken from 0.2 μmol/L test compound diluted with β-NADPH solution. • (2) Fifty microliters of 0.2 mg protein/mL human hepatic microsome solution was added to each (except for a sample with a reaction time of 0 minutes). • (3) Incubation was performed with shaking at 37° C. for 30 minutes (concentration in reaction sample: 0.1 μmol/L test compound, 0.1 mg protein/mL human hepatic microsome) • (4) After incubation, 400 μL of methanol was added to terminate the reaction. • (5) To the sample with a reaction time of 0 minutes, 50 μL of 0.2 mg protein/mL hepatic microsome solution was added. • (6) Each of the samples from (4) and (5) was left to stand at −20° C. for 30 minutes or longer, and then centrifuged at 4° C. and 3,000 rpm for approximately 10 minutes. • (7) The supernatant was subjected to measurement with LC/MS/MS, and, on the basis of the peak area obtained for the unchanged form, the residual rate (%) of the unchanged form was calculated as that for the case with an incubation time of 0 minutes was assumed as 100%.

For series [4], the system named is pain induced by carrageenan, C57BL/6J mice. As to the kind of experiment: Test Example 5: Suppression effect on pain induced by carrageenan (von Frey escape score). The conditions noted are these: mean ± SE, n=8. In kind it is in vivo, mouse. Here is the method:
This experiment was carried out with reference to Science Translational Medicine 6, 251ra118 (2014). Animals used were 7-week-old male C57BL/6J mice (The Jackson Laboratory Japan, Inc.). To induce mechanical allodynia to a sole part, carrageenan was subcutaneously administered to the sole of the left hind limb of each mouse. The escape response against mechanical stimulation 180 minutes after the induction was measured by using a von Frey filament with bending force (0.16 grams) to the sole surface of the left hind limb in the ascending direction. The mouse was stimulated in the vertical direction for 6 seconds until the filament bent, and the escape response of the mouse was rated with three-grade scoring (0: no response or startle response (displacing the foot without ascending), 1: ascending the foot, 2: licking or shaking the foot). Stimulation was performed 10 times, and the total value of 10 scores (escape score) was calculated.
The compound (Example 3) was dissolved in DMSO/PEG400 (volume ratio: 1:1), and 2, 6, or 20 mg/kg (no compound for a Vehicle group) of the compound was subcutaneously administered to the back of the neck three times in total at the same dose: 15 minutes before injection of carrageenan, 30 minutes after injection of carrageenan, and 150 minutes after injection of carrageenan, each at a dose of 5 mL/kg in liquid volume. A 1.5% carrageenan solution was prepared with physiological saline, and subcutaneously administered to the sole of the left hind limb at 7 μL/body.
In significance test, multiple comparison by the Steel's test was carried out for comparison between the Vehicle group and Example 3 group, where the significance level was set to 5%, and calculation was separately performed for lower than 5% (p<0.05) and for lower than 1% (p<0.01). The commercially available statistical program SAS SYSTEM (SAS Institute Japan Ltd.) was used for the significance test.

With `COc1ncc(CNC(=O)c2cc(-c3ncccc3CO)ccc2F)cc1F` [Example 3, 2-Fluoro-N-((5-fluoro-6-methoxypyridin-3-yl)methyl)-5-(3-(hydroxymethyl)pyridin-2-yl)benzamide], the “acetaldehyde oxidation rate (no test compound = 100%)” value came to 188% in series [1] (test compound 10 μM) and 226% in series [1] (test compound 30 μM). Further, the “Residual rate (%) of unchanged form” value in series [2] and in series [3] was 93% in each case. Also, the Pain-related total score in series [4] (2 mg/kg s.c. three times, 180 min after induction with carrageenan, p<0.01 vs Vehicle (9.4 ± 0.5)) came to 5.3 ± 0.3; in series [4] (2 mg/kg s.c. three times, Pre (before induction)) it was 1.8 ± 0.5; in series [4] (6 mg/kg s.c. three times, 180 min after induction with carrageenan, p<0.01 vs Vehicle (9.4 ± 0.5)), 4.6 ± 0.3; in series [4] (6 mg/kg s.c. three times, Pre (before induction)) it was 1.8 ± 0.5; in series [4] (20 mg/kg s.c. three times, 180 min after induction with carrageenan, p<0.01 vs Vehicle (9.4 ± 0.5)) it was 3.9 ± 0.3; in series [4] (20 mg/kg s.c. three times, Pre (before induction)) it was 1.8 ± 0.4.
